Values quoted from earlier work in US20040208942A1, “Alpha lipoic acid based food supplement for increasing lean muscle mass and strength” (priority 2000, published 2004).

In the case of `O=C(O)CCCCC1CCSS1` (stereo not drawn) [α lipoic acid], the “body's utilization of blood sugar” value (type II diabetes) is listed as “significantly increase” and the “increase of the metabolic clearance rate of glucose” value (type II diabetics) is listed as 50%.
